The data set is described as follows: in vitro. The following applies: rat, gh3-tre-luc cells.

Structures can show the parent of a compound that is named as a salt.

The text below walks through data of paper PMC6792352, “Limited Chemical Structural Diversity Found to Modulate Thyroid Hormone Receptor in the Tox21 Chemical Library” (Environmental Health Perspectives, 2019).

The CC50 is the concentration giving 50% cytotoxicity. A high value points to lower toxicity to the cells. On to `CC(=O)OCCc1ccccc1` [2-Phenylethyl acetate], for which the CC50 at 24 h (AC50 (uM) modified / 1000) is above 90 µM.
Under “AC50 (uM) modified / 1000”, `CC(C)c1ccc2c(c1)CC[C@H]1[C@](C)(CN)CCC[C@]21C` [Dehydroabietylamine acetate] came in with a CC50 at 24 h of 10.1 µM.
With `CC(Cl)C(Cl)Cl` (stereo not shown) [1,1,2-Trichloropropane], where the note is “AC50 (uM) modified / 1000”, the CC50 at 24 h was above 90 µM.
On the same count and under the same terms, the same measure for `O=Cc1ccc(Cl)c(Cl)c1` [3,4-Dichlorobenzaldehyde]: above 90 µM; for `CC(C)(C)NC(N)=O` [(1,1-Dimethylethyl)urea]: above 90 µM.
For the setting “AC50 (uM) modified / 1000”, `CC(C)c1cc(C(C)C)cc(C(C)C)c1` [1,3,5-Triisopropylbenzene] gave a CC50 at 24 h above 90 µM.
On the same count and under the same terms, in the case of `O=S(=O)(Cl)c1c(Cl)cccc1Cl` [2,6-Dichlorobenzenesulfonylchloride] it was above 90 µM.
Where the note is “AC50 (uM) modified / 1000”, `CCC12COCN1COC2` [Oxazolidine-E] displayed a CC50 at 24 h above 90 µM.
In turn, `O=S(=O)(O)c1cccc(S(=O)(=O)O)c1` [Disodium benzene-1,3-disulfonate] gave a cytotoxic concentration (CC50) at 24 h (AC50 (uM) modified / 1000) above 90 µM.
The same measure, in the same setting: in the case of `CC(C)c1ccc2cc(C(C)C)ccc2c1` [2,6-Diisopropylnaphthalene] it was above 90 µM; in that of `C/C=C/c1ccc(O)c(OC)c1` [Isoeugenol], above 90 µM.
In turn, `C[N+](C)(C)Cc1ccccc1` [Benzyltrimethylammonium chloride] had a CC50 at 24 h (AC50 (uM) modified / 1000) above 90 µM.
Compound `c1ccsc1` [Thiophene] showed a CC50 at 24 h (AC50 (uM) modified / 1000) above 90 µM.
As for `O=C(O)COc1ccccc1` [Phenoxyacetic acid], the CC50 at 24 h was above 50 µM (AC50 (uM) modified / 1000, Tox21_110001=Tox21_111092, viability, 1 nM T3 present, 24 h) and above 90 µM (AC50 (uM) modified / 1000, Tox21_110001=Tox21_201854, viability, 1 nM T3 present, 24 h).
On to `CN=C=S` [Methyl isothiocyanate], for which the CC50 at 24 h is, setting by setting: (AC50 (uM) modified / 1000, Tox21_110001=Tox21_201548, viability, 1 nM T3 present, 24 h) above 90 µM; (AC50 (uM) modified / 1000, Tox21_110001=Tox21_300912, viability, 1 nM T3 present, 24 h) above 200 µM.
Take `O=C(O)c1cc(O)c2c3nc4ccccc4oc-3cc(=O)c2n1` [Pirenoxine sodium]: the CC50 at 24 h (AC50 (uM) modified / 1000) is above 50 µM.
Same read-out and setting: the same measure for `C=C(C)C(=O)OCCN(C)C` [2-(Dimethylamino)ethyl methacrylate]: above 90 µM; for `C=CCCCCCCCCC(=O)O` [10-Undecenoic acid]: above 90 µM; for `CC(C(=O)O)c1ccc2c(c1)CC(=O)c1ccccc1S2` (stereo not shown) [Zaltoprofen]: above 50 µM.
In turn, `CCCC1C(=O)N2C(N(C)C)=Nc3ccc(C)cc3N2C1=O` (stereo not shown) [Azapropazone] returned a half-maximal cytotoxic concentration (CC50) at 24 h (AC50 (uM) modified / 1000) above 20 µM.
For `CC(=O)CN(CC(C)=O)N=O` [N-Nitrosobis(2-oxopropyl)amine], the CC50 at 24 h (AC50 (uM) modified / 1000) is above 90 µM.
Under “AC50 (uM) modified / 1000”, `C=C1C(=O)O[C@H]2[C@H]1CC/C(C)=C/CC[C@@]1(C)O[C@@H]21` [Parthenolide] came in with a CC50 at 24 h of 13.8 µM.
Consider `O=C1CCc2ccccc2O1` [3,4-Dihydrocoumarin], for which, for the setting “AC50 (uM) modified / 1000”, the CC50 at 24 h was above 90 µM.
For the compound `CC1(C)Cc2cccc(N)c2O1` [2,2-Dimethyl-2,3-dihydro-1-benzofuran-7-amine], under “AC50 (uM) modified / 1000”, the CC50 at 24 h was above 90 µM.
In the case of `CS(=O)(=O)c1ccc(C(=O)C2C(=O)CCCC2=O)c(Cl)c1COCC(F)(F)F` [Tembotrione], the CC50 at 24 h (AC50 (uM) modified / 1000) is above 90 µM.
In turn, `COC(=O)Nc1nc2ccc([S+]([O-])c3ccccc3)cc2[nH]1` (stereo not shown) [Oxfendazole] had a CC50 at 24 h (AC50 (uM) modified / 1000) above 50 µM.
The same measure, in the same setting: the same measure for `CC1(C)CNC(=NN=C(/C=C/c2ccc(C(F)(F)F)cc2)/C=C/c2ccc(C(F)(F)F)cc2)NC1` [Hydramethylnon]: 11.2 µM.
On to `ClCCCCBr` [1-Bromo-4-chlorobutane], for which the CC50 at 24 h (AC50 (uM) modified / 1000, Tox21_110001=Tox21_202866, viability, 1 nM T3 present, 24 h) was above 90 µM.
Under “AC50 (uM) modified / 1000, Tox21_110001=Tox21_302196, viability, 1 nM T3 present, 24 h”, `CC(C)C(C)(N)C#N` (stereo not shown) [2-Amino-2,3-dimethylbutanenitrile] gave a CC50 at 24 h above 90 µM.
Compound `OCC1CC2CC1C1CCC(CO)C21` (stereo not shown) [Tricyclodecanedimethanol] registered a cytotoxic concentration (CC50) at 24 h (AC50 (uM) modified / 1000) above 90 µM.
For `O=C1OC(=O)c2ccccc21` [Phthalic anhydride], for the setting “AC50 (uM) modified / 1000”, the CC50 at 24 h is above 90 µM.
For the compound `COC(=O)C(C)=O` [Methylpyruvate], the CC50 at 24 h (AC50 (uM) modified / 1000) was above 90 µM.
As for `CC(=O)OCc1ccco1` [Furfuryl acetate], under “AC50 (uM) modified / 1000”, the CC50 at 24 h is above 90 µM.
Same read-out and setting: the same measure for `CO/N=C(\C(=O)N[C@@H]1C(=O)N2C(C(=O)[O-])=C(C[n+]3cccc4c3CCC4)CS[C@H]12)c1csc(N)n1` [Cefpirome sulfate]: above 50 µM; for `Oc1cccc(O)c1` [Resorcinol]: above 90 µM.
Same read-out and setting: in the case of `CC1=C(O)C(=O)C(C)O1` (stereo not shown) [4-Hydroxy-2,5-dimethyl-3(2H)furanone] it was above 90 µM; in that of `COc1ccc(CN2CCN(C(c3ccc(F)cc3)c3ccc(F)cc3)CC2)c(OC)c1OC` [Lomerizine dihydrochloride], 10.5 µM.
Turning to `CCCCCc1ccc(C)cc1O` [Amylmetacresol], the CC50 at 24 h (AC50 (uM) modified / 1000) is above 50 µM.
Same read-out and setting: in the case of `CC(C)COC(=O)c1ccc(N)cc1` [Isocaine] it was above 50 µM; in that of `COC(=O)C(c1ccccc1)C1CCCCN1` (stereo not shown) [Methylphenidate hydrochloride], above 90 µM; in that of `COCCOCCOC` [Diethylene glycol dimethyl ether], above 90 µM.
For the setting “AC50 (uM) modified / 1000”, `CCN(CC)S(=O)(=O)c1ccc(C(=O)O)cc1` [Ethebenecid] returned a CC50 at 24 h above 50 µM.
`NCCS` [Cysteamine hydrochloride] yielded a CC50 at 24 h (AC50 (uM) modified / 1000) above 50 µM.
The compound `CC(=O)c1ccccc1O` [2-Hydroxyacetophenone] displayed a CC50 at 24 h (AC50 (uM) modified / 1000) above 90 µM.
Turning to `C=C(C#N)C(=O)OCC` [Ethyl cyanoacrylate], where the note is “AC50 (uM) modified / 1000”, the CC50 at 24 h is above 90 µM.
`O=C(O)c1ccccn1` [Picolinic acid]: the CC50 at 24 h (AC50 (uM) modified / 1000) is above 50 µM.
Consider `CC(O)C#CC(C)O` (stereo not shown) [Hex-3-yne-2,5-diol], for which, where the note is “AC50 (uM) modified / 1000”, the CC50 at 24 h was found to be 50.2 µM.
For the compound `COC1=C(C(=O)O)N2C(=O)[C@@H](NC(=O)[C@H](N)C3=CCC=CC3)[C@H]2SC1` [Cefroxadine], where the note is “AC50 (uM) modified / 1000”, the CC50 at 24 h is above 50 µM.
With `C#CCN(C)CCCOc1ccc(Cl)cc1Cl` [Clorgyline hydrochloride], the CC50 at 24 h (AC50 (uM) modified / 1000) came to 28.1 µM.
`C[Si]1(C)N[Si](C)(C)N[Si](C)(C)N1` [2,2,4,4,6,6-Hexamethyl-1,3,5,2,4,6-triazatrisilinane] yielded a CC50 at 24 h (AC50 (uM) modified / 1000) above 90 µM.
As to `O=[N+]([O-])c1ccc(Oc2ccc(Cl)cc2Cl)cc1` [Nitrofen], for the setting “AC50 (uM) modified / 1000, Tox21_110001=Tox21_202438, viability, 1 nM T3 present, 24 h”, the CC50 at 24 h is above 90 µM.
Consider `Nc1ccc2c(c1)C(=O)c1ccccc1C2=O` [2-Aminoanthraquinone], for which the CC50 at 24 h (AC50 (uM) modified / 1000) is above 90 µM.
For `CC(C(=O)O)c1ccc(C(=O)c2ccccc2)s1` (stereo not shown) [Tiaprofenic acid], the CC50 at 24 h (AC50 (uM) modified / 1000) was above 20 µM.
For `Cc1cccc(C(=O)O)c1` [3-Methylbenzoic acid], the CC50 at 24 h (AC50 (uM) modified / 1000) was above 90 µM.
In the case of `CC[N+](CC)(CC)CCOC(=O)C(C1CCCC1)C1CCCC1` [Diponium bromide], the CC50 at 24 h (AC50 (uM) modified / 1000) was above 50 µM.
`Cn1cnc2c(O)nc(N)nc21` [9-Methylguanine] returned a CC50 at 24 h (AC50 (uM) modified / 1000) above 90 µM.
Compound `C=CC(=O)OCCC#N` [2-Cyanoethyl prop-2-enoate] showed a CC50 at 24 h (AC50 (uM) modified / 1000) above 90 µM.
Same read-out and setting: the same measure for `CCCCN1C(=O)[C@@H]([C@H](O)C2CCCCC2)NC(=O)C12CCN(Cc1ccc(Oc3ccc(C(=O)O)cc3)cc1)CC2` [Aplaviroc hydrochloride]: 77.3 µM.
`Cc1cccc(C)c1Nc1ncccc1C(=O)O` [Metanixin] displayed a CC50 at 24 h (AC50 (uM) modified / 1000) above 50 µM.
Consider `O=C(O)CN(CCN(CC(=O)O)CC(=O)O)CCN(CC(=O)O)CC(=O)O` [Pentetic acid], for which half-maximal cytotoxicity (AC50 (uM) modified / 1000) (CC50 at 24 h) was put at 25 µM.
In the case of `COc1nc(N)nc2nc[nH]c12` [O6-Methylguanine], the CC50 at 24 h (AC50 (uM) modified / 1000) is above 90 µM.
For the setting “AC50 (uM) modified / 1000”, `Cc1ccc(Nc2ccc(O)c3c2C(=O)c2ccccc2C3=O)cc1` [D&C Violet 2] had a CC50 at 24 h above 90 µM.
